Assay results reported in the supplement of paper PMC10307832.

What was measured:
Test in all cases: relative viability (nuclei count vs DMSO), 5 days (fraction); higher = more cells survive
Selisistat + Crizotinib = compound: C1CC(C2=C(C1)C3=C(N2)C=CC(=C3)Cl)C(=O)N [Selisistat] + C[C@@H](Oc1cc(-c2cnn(C3CCNCC3)c2)cnc1N)c1c(Cl)ccc(F)c1Cl [Crizotinib] (partner 1 µM)
How it was run: (§1)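 After 5 days of treatment, lung cancer cells in 1536-well plates were fixed and stained in a single step (final 0.05% Triton X-100, 1% formaldehyde, 1 ug/ml Hoechst) and their nuclei counted on 4× images. Treatment had been applied by pin tool the day after seeding as one drug alone or as a fixed anchor-drug dose with five library-drug doses (not always all listed) in √10 steps. Relative viability is the nuclei count of treated wells divided by that of vehicle wells, and values are medians of duplicate plates.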

Serdemetan + Pictilisib = compound: c1ccc2c(CCNc3ccc(Nc4ccncc4)cc3)c[nH]c2c1 [Serdemetan] + CS(=O)(=O)N1CCN(Cc2cc3nc(-c4cccc5[nH]ncc45)nc(N4CCOCC4)c3s2)CC1 [Pictilisib] (partner 1 µM)
How it was run: as §1

Selisistat + Foretinib = compound: C1CC(C2=C(C1)C3=C(N2)C=CC(=C3)Cl)C(=O)N [Selisistat] + COc1cc2c(Oc3ccc(NC(=O)C4(C(=O)Nc5ccc(F)cc5)CC4)cc3F)ccnc2cc1OCCCN1CCOCC1 [Foretinib] (partner 0.25 µM)
How it was run: as §1

Selisistat + Linsitinib = compound: C1CC(C2=C(C1)C3=C(N2)C=CC(=C3)Cl)C(=O)N [Selisistat] + C[C@]1(O)C[C@@H](c2nc(-c3ccc4ccc(-c5ccccc5)nc4c3)c3c(N)nccn32)C1 [Linsitinib] (partner 1 µM)
How it was run: as §1

Cell Line | relative viability (Selisistat + Crizotinib; first compound 0.4 µM) | relative viability (Selisistat + Crizotinib; first compound 1.265 µM) | relative viability (Selisistat + Crizotinib; first compound 4 µM) | relative viability (Selisistat + Crizotinib; first compound 12.65 µM) | relative viability (Selisistat + Crizotinib; first compound 40 µM) | relative viability (Serdemetan + Pictilisib; first compound 0.04 µM) | relative viability (Serdemetan + Pictilisib; first compound 0.1265 µM) | relative viability (Serdemetan + Pictilisib; first compound 0.4 µM) | relative viability (Serdemetan + Pictilisib; first compound 1.265 µM) | relative viability (Serdemetan + Pictilisib; first compound 4 µM) | relative viability (Selisistat + Foretinib; first compound 0.4 µM) | relative viability (Selisistat + Foretinib; first compound 1.265 µM) | relative viability (Selisistat + Foretinib; first compound 4 µM) | relative viability (Selisistat + Foretinib; first compound 12.65 µM) | relative viability (Selisistat + Foretinib; first compound 40 µM) | relative viability (Selisistat + Linsitinib; first compound 0.4 µM) | relative viability (Selisistat + Linsitinib; first compound 1.265 µM) | relative viability (Selisistat + Linsitinib; first compound 4 µM) | relative viability (Selisistat + Linsitinib; first compound 12.65 µM) | relative viability (Selisistat + Linsitinib; first compound 40 µM)
NCI-H1650 | 1.09 | 0.966 | 0.909 | 0.899 | 0.955 | 0.57 | 0.585 | 0.475 | 0.41 | 0.441 | 1.11 | 1.03 | 1.02 | 0.999 | 1.18 | – | – | – | – | –
BEN | 0.843 | 0.76 | 0.748 | 0.72 | 0.863 | 0.57 | 0.529 | 0.565 | 0.535 | 0.496 | 0.575 | 0.553 | 0.373 | 0.558 | 0.468 | 0.971 | 0.986 | 0.812 | 0.762 | 0.827
EMC-BAC-2 | 0.78 | 0.74 | 0.742 | 0.582 | 0.755 | 0.564 | 0.556 | 0.507 | 0.508 | 0.502 | 1.03 | 0.97 | 0.962 | 1.11 | 0.842 | 0.87 | 0.787 | 0.777 | 0.753 | 0.813
LU99A | 0.568 | 0.438 | 0.662 | 0.493 | 0.677 | 0.336 | 0.33 | 0.338 | 0.2 | 0.218 | 0.825 | 0.744 | 0.774 | 0.773 | 0.801 | 0.537 | 0.608 | 0.657 | 0.516 | 0.485
ABC-1 | 1.01 | 1.19 | 1.1 | 0.933 | 0.881 | 0.674 | 0.673 | 0.616 | 0.367 | 0.294 | 0.927 | 1.04 | 0.929 | 1.08 | 1.16 | 0.649 | 0.652 | 0.788 | 0.726 | 0.721
NCI-H2170 | 1.2 | 1.16 | 1.22 | 1.15 | 1.26 | 0.365 | 0.34 | 0.311 | 0.28 | 0.349 | 1.11 | 1 | 0.943 | 1.03 | 1.08 | – | – | – | – | –
NCI-H1299 | 0.944 | 1 | 0.946 | 0.944 | 1 | 0.858 | 0.864 | 0.679 | 0.61 | 0.384 | 1.16 | 1.13 | 1.15 | 1.07 | 1.11 | 1.06 | 1.01 | 0.996 | 0.974 | 0.991
EBC-1 | 0.2 | 0.19 | 0.191 | 0.169 | 0.184 | 0.35 | 0.449 | 0.451 | 0.411 | 0.368 | 0.111 | 0.0934 | 0.0874 | 0.0996 | 0.104 | 0.92 | 0.899 | 0.892 | 0.8 | 0.844
NCI-H2347 | 0.814 | 0.946 | 0.566 | 0.813 | 0.84 | 0.718 | 0.517 | 0.71 | 0.69 | 0.464 | 0.918 | 1.04 | – | 1.06 | 0.989 | 1.05 | 0.999 | 0.733 | 0.973 | 0.979
NCI-H1993 | 0.803 | 0.92 | – | 0.987 | 0.854 | 0.815 | 0.884 | 0.809 | – | 0.761 | 0.745 | 0.798 | 0.696 | 0.949 | 0.707 | 0.719 | 0.72 | – | 0.648 | 0.773
NCI-H322M | 0.959 | 1.01 | – | 0.903 | 1.15 | 0.519 | 0.505 | 0.468 | 0.552 | 0.516 | 0.953 | 1.01 | 0.884 | 1.13 | 1.11 | 1 | 1.03 | – | 0.959 | 0.976
NCI-H838 | 0.819 | 0.841 | 0.888 | 0.759 | 0.801 | 0.395 | 0.508 | 0.507 | 0.438 | 0.549 | 1.03 | 1.03 | 0.957 | 1.07 | 0.962 | 1.06 | 1.06 | 1.03 | 1.06 | 1.06
HARA | 0.95 | 1.01 | 1 | 1 | 0.981 | 0.385 | 0.411 | 0.408 | – | 0.347 | 0.865 | 0.905 | 0.773 | 0.839 | 0.512 | 0.938 | 0.917 | 0.854 | 0.844 | 0.983
NCI-H2342 | – | – | – | – | – | – | – | – | – | – | 0.997 | 0.986 | 0.896 | 1.09 | 1.07 | – | – | – | – | –
NCI-H1792 | 1.01 | 1.02 | – | 0.907 | 0.965 | 0.278 | 0.274 | 0.283 | 0.242 | 0.145 | – | – | – | – | – | 0.548 | 0.594 | – | 0.438 | 0.635
ChaGo-K-1 | 1.15 | 1.04 | – | 1.08 | 1.09 | – | 0.832 | 0.649 | 0.421 | 0.659 | 0.927 | 0.896 | 0.922 | 0.857 | 0.843 | – | – | – | – | –
HCC-44 | 0.804 | 0.788 | 0.957 | 0.871 | 0.801 | 0.513 | 0.668 | 0.501 | 0.481 | 0.689 | – | – | – | – | – | 0.707 | 0.698 | 0.669 | 0.662 | 0.753
NCI-H1793 | – | – | – | – | – | 0.302 | 0.415 | 0.31 | 0.163 | 0.199 | 0.386 | 0.681 | – | 0.724 | 0.528 | 0.977 | 0.822 | – | 1.01 | 1.17
NCI-H1395 | – | – | – | – | – | 0.574 | 0.619 | 0.676 | 0.485 | 0.475 | 1.01 | 0.993 | 0.909 | 1.03 | 0.878 | 1.16 | 1.28 | 1.02 | 1 | 0.521
SW 900 | – | – | – | – | – | – | – | – | – | – | 0.921 | 0.778 | 0.798 | 0.955 | 0.977 | – | – | – | – | –
